Experimental data as given in article PMC2788670 (Journal of medicinal chemistry, 2009).
Entries after “also recorded” stand apart in the source; their conditions may differ.

Assays:
Assay type in all cases: cell-based
HIV-2 KR.X3 = HIV-2 KR.X3 single-round infection assay in TZM-bl cells; conditions: for IC50 (µM) HIV-2 KR.X3: TZM-bl cells, 200 TCID50, 2 days, luciferase, average of 3 independent experiments, Inactive = TC50/IC50 < 2; for reduction of anti-HIV-2 activity after glycine addition compared to precursor: 13 versus 8, 14 versus 9
HIV-1 NL4-3 = HIV-1 NL4-3 single-round infection assay in TZM-bl cells; conditions: 200 TCID50, 2 days, luciferase, average of 3 independent experiments, Inactive = TC50/IC50 < 2
HIV-2 KR.X3-YU-2/V3 = HIV-2 KR.X3-YU-2/V3 chimeric virus infection assay in TZM-bl cells; conditions: chimeric virus with V3 loop of HIV-1 YU-2; Figure 1, 4 independent experiments

Structure (SMILES)	IC50 (µM) HIV-2 KR.X3 (HIV-2 KR.X3)	IC50 (µM) HIV-1 NL4-3 (HIV-1 NL4-3)	also measured
C=C(C)[C@@H]1CC[C@]2(C(=O)O)CC[C@]3(C)[C@H](CC[C@@H]4[C@@]5(C)CC[C@H](O)C(C)(C)[C@@H]5CC[C@]43C)[C@@H]12 [Compound 1, Betulinic acid, reference compound]	did not exhibit anti-HIV-1 or anti-HIV-2 activity; also recorded: Inactive	did not exhibit anti-HIV-1 or anti-HIV-2 activity; also recorded: Inactive	
C=C(C)[C@@H]1CC[C@]2(C(=O)NCCCCCNC(C)=O)CC[C@]3(C)[C@H](CC[C@@H]4[C@@]5(C)CC[C@H](O)C(C)(C)[C@@H]5CC[C@]43C)[C@@H]12 [Compound 2]	Inactive	Inactive	
C=C(C)[C@@H]1CC[C@]2(C(=O)NCCCCCCNC(C)=O)CC[C@]3(C)[C@H](CC[C@@H]4[C@@]5(C)CC[C@H](O)C(C)(C)[C@@H]5CC[C@]43C)[C@@H]12 [Compound 3]	completely inactive		
C=C(C)[C@@H]1CC[C@]2(C(=O)NCCCCCCCNC(C)=O)CC[C@]3(C)[C@H](CC[C@@H]4[C@@]5(C)CC[C@H](O)C(C)(C)[C@@H]5CC[C@]43C)[C@@H]12 [Compound 4, [[N-[3β-hydroxyl-lup-20(29)-en-28-oyl]-7-aminoheptyl]-carbamoyl]methane]	Inactive		
C=C(C)[C@@H]1CC[C@]2(C(=O)NCCCCCCCCNC(C)=O)CC[C@]3(C)[C@H](CC[C@@H]4[C@@]5(C)CC[C@H](O)C(C)(C)[C@@H]5CC[C@]43C)[C@@H]12 [Compound 5]	Inactive		
C=C(C)[C@@H]1CC[C@]2(C(=O)NCCCCCCNC(=O)CC(=O)O)CC[C@]3(C)[C@H](CC[C@@H]4[C@@]5(C)CC[C@H](O)C(C)(C)[C@@H]5CC[C@]43C)[C@@H]12 [Compound 6]	Inactive		
C=C(C)[C@@H]1CC[C@]2(C(=O)NCCCC(=O)O)CC[C@]3(C)[C@H](CC[C@@H]4[C@@]5(C)CC[C@H](O)C(C)(C)[C@@H]5CC[C@]43C)[C@@H]12 [Compound 7]		Inactive	
C=C(C)[C@@H]1CC[C@]2(C(=O)NCCCCCCCC(=O)O)CC[C@]3(C)[C@H](CC[C@@H]4[C@@]5(C)CC[C@H](O)C(C)(C)[C@@H]5CC[C@]43C)[C@@H]12 [Compound 11]	Inactive		
C=C(C)[C@@H]1CC[C@]2(C(=O)NCCCC(=O)NCC(=O)O)CC[C@]3(C)[C@H](CC[C@@H]4[C@@]5(C)CC[C@H](O)C(C)(C)[C@@H]5CC[C@]43C)[C@@H]12 [Compound 12]		Inactive	
C=C(C)[C@@H]1CC[C@]2(C(=O)NCCCCC(=O)NCC(=O)O)CC[C@]3(C)[C@H](CC[C@@H]4[C@@]5(C)CC[C@H](O)C(C)(C)[C@@H]5CC[C@]43C)[C@@H]12 [Compound 13]		Inactive	reduction of anti-HIV-2 activity after glycine addition compared to precursor (HIV-2 KR.X3): approximately 15 fold
C=C(C)[C@@H]1CC[C@]2(C(=O)NCCCCCC(=O)NCC(=O)O)CC[C@]3(C)[C@H](CC[C@@H]4[C@@]5(C)CC[C@H](O)C(C)(C)[C@@H]5CC[C@]43C)[C@@H]12 [Compound 14]			reduction of anti-HIV-2 activity after glycine addition compared to precursor (HIV-2 KR.X3): approximately 2 fold; HIV-2 KR.X3-YU-2/V3 less sensitive compared to HIV-2 KR.X3 (HIV-2 KR.X3-YU-2/V3): approximately 5 fold
C=C(C)[C@@H]1CC[C@]2(C(=O)NCCCCCCCC(=O)N[C@@H](CC(C)C)[C@H](O)CC(=O)O)CC[C@]3(C)[C@H](CC[C@@H]4[C@@]5(C)CC[C@H](O)C(C)(C)[C@@H]5CC[C@]43C)[C@@H]12 [Compound 17, reference compound]			anti-HIV-2 activity less potent than its anti-HIV-1 activity (HIV-2 KR.X3; HIV-2 KR.X3 versus HIV-1 NL4-3): about 70 times
C=C(C)[C@@H]1CC[C@]2(C(=O)NCCCCCC(=O)N[C@@H](Cc3ccc(O)cc3)C(=O)O)CC[C@]3(C)[C@H](CC[C@@H]4[C@@]5(C)CC[C@H](O)C(C)(C)[C@@H]5CC[C@]43C)[C@@H]12 [Compound 19]		Inactive	
C=C(C)[C@@H]1CC[C@]2(C(=O)NCCCCCC(=O)NCC(=O)NCC(=O)O)CC[C@]3(C)[C@H](CC[C@@H]4[C@@]5(C)CC[C@H](O)C(C)(C)[C@@H]5CC[C@]43C)[C@@H]12 [Compound 21]			less potent against HIV-2 than 9 (HIV-2 KR.X3): approximately 10 fold
C=C(C)[C@@H]1CC[C@]2(C(=O)O)CC[C@]3(C)[C@H](CC[C@@H]4[C@@]5(C)CC[C@H](OC(=O)CC(C)(C)C(=O)O)C(C)(C)[C@@H]5CC[C@]43C)[C@@H]12 [Compound 22, 3-O-(3’,3’-dimethylsuccinyl)-betulinic acid, reference compound]	did not inhibit HIV-2 replication; also recorded: Inactive		
